What was measured:
SW-620 = assay: Growth inhibition of human SW620 cells after 48 hrs by sulforhodamine B assay; format: functional; conditions: SW-620, 48 h
NCI-H522 = assay: Growth inhibition of human NCI-H522 cells after 48 hrs by sulforhodamine B assay; format: functional; conditions: NCI-H522, 48 h
[1] = Growth inhibition of human OVCAR8 cells after 48 hrs by sulforhodamine B assay; format: functional; conditions: OVCAR-8, 48 h
[2] = Growth inhibition of human […] cells after 48 hrs by sulforhodamine B assay; format: functional
SK-OV-3 [3] = assay: Growth inhibition of human SKOV3 cells after 48 hrs by sulforhodamine B assay; format: functional; conditions: SK-OV-3, 48 h
HeLa [4] = assay: Antiproliferative activity against human HeLa cells overexpressing wild type beta3 tubulin after 48 hrs by sulforhodamine B assay; format: functional, cell-based
MDA-MB-435 [5] = assay: Antiproliferative activity against human MDA-MB-435 cells after 48 hrs by sulforhodamine B assay; format: functional, cell-based; conditions: MDA-MB-435, 48 h
SK-OV-3 [6] = assay: Resistance ratio of IC50 for human SKOV3-MDR1-M6/6 cells to IC50 for human SKOV3 cells; format: functional
DU-145 = assay: Growth inhibition of human DU145 cells after 48 hrs by sulforhodamine B assay; format: functional; conditions: DU-145, 48 h
[7] = Growth inhibition of human HCT116 cells after 48 hrs by sulforhodamine B assay; format: functional; conditions: HCT-116, 48 h
HOP-62 = assay: Growth inhibition of human HOP62 cells after 48 hrs by sulforhodamine B assay; format: functional; conditions: HOP-62, 48 h
NCI/ADR-RES = assay: Growth inhibition of human NCI/ADR-RES cells after 48 hrs by sulforhodamine B assay; format: functional
[8] = Antiproliferative activity against human SKOV3-MDR1-M6/6 cells overexpressing wild type beta3 tubulin after 48 hrs by sulforhodamine B assay; format: functional, cell-based; conditions: SKOV3-MDR1-M6/6, 48 h
[9] = Growth inhibition of human OVCAR3 cells after 48 hrs by sulforhodamine B assay; format: functional; conditions: OVCAR-3, 48 h
MCF7 = assay: Growth inhibition of human MCF7 cells after 48 hrs by sulforhodamine B assay; format: functional; conditions: MCF7, 48 h
[10] = Growth inhibition of human HCC2998 cells after 48 hrs by sulforhodamine B assay; format: functional; conditions: HCC 2998, 48 h
[11] = Growth inhibition of human LOXIMVI cells after 48 hrs by sulforhodamine B assay; format: functional; conditions: LOX IMVI
[12] = Growth inhibition of human Hs 578T cells after 48 hrs by sulforhodamine B assay; format: functional
CAKI-1 = assay: Growth inhibition of human Caki1 cells after 48 hrs by sulforhodamine B assay; format: functional; conditions: CAKI-1, 48 h
[13] = Growth inhibition of human UACC62 cells after 48 hrs by sulforhodamine B assay; format: functional; conditions: UACC-62, 48 h
[14] = Growth inhibition of human SF539 cells after 48 hrs by sulforhodamine B assay; format: functional; conditions: SF-539, 48 h
[15] = Growth inhibition of human OVCAR4 cells after 48 hrs by sulforhodamine B assay; format: functional; conditions: OVCAR-4, 48 h
SR = assay: Growth inhibition of human SR cells after 48 hrs by sulforhodamine B assay; format: functional
SF-268 = assay: Growth inhibition of human SF268 cells after 48 hrs by sulforhodamine B assay; format: functional; conditions: SF-268, 48 h
NCI-H23 = assay: Growth inhibition of human NCI-H23 cells after 48 hrs by sulforhodamine B assay; format: functional; conditions: NCI-H23, 48 h
A-431 = assay: Antiproliferative activity against human A431 cells after 48 hrs by sulforhodamine B assay; format: functional, cell-based; conditions: A-431, 48 h
HT-29 = assay: Growth inhibition of human HT-29 cells after 48 hrs by sulforhodamine B assay; format: functional; conditions: HT-29, 48 h
SNB-75 = assay: Growth inhibition of human SNB75 cells after 48 hrs by sulforhodamine B assay; format: functional; conditions: SNB-75, 48 h
K562 = assay: Growth inhibition of human K562 cells after 48 hrs by sulforhodamine B assay; format: functional; conditions: K562, 48 h
ACHN = assay: Growth inhibition of human ACHN cells after 48 hrs by sulforhodamine B assay; format: functional
SN12C = assay: Growth inhibition of human SN12C cells after 48 hrs by sulforhodamine B assay; format: functional
MDA-MB-468 = assay: Growth inhibition of human MDA-MB-468 cells after 48 hrs by sulforhodamine B assay; format: functional; conditions: MDA-MB-468, 48 h
M14 = assay: Growth inhibition of human M14 cells after 48 hrs by sulforhodamine B assay; format: functional; conditions: M14, 48 h
[16] = Growth inhibition of human HCT15 cells after 48 hrs by sulforhodamine B assay; format: functional; conditions: HCT-15, 48 h
[17] = Growth inhibition of human OVCAR5 cells after 48 hrs by sulforhodamine B assay; format: functional; conditions: OVCAR-5, 48 h
TK-10 = assay: Growth inhibition of human TK10 cells after 48 hrs by sulforhodamine B assay; format: functional; conditions: TK-10, 48 h
MDA-MB-231 = assay: Growth inhibition of human MDA-MB-231 cells after 48 hrs by sulforhodamine B assay; format: functional; conditions: MDA-MB-231, 48 h
SK-MEL-5 = assay: Growth inhibition of human SK-MEL-5 cells after 48 hrs by sulforhodamine B assay; format: functional; conditions: SK-MEL-5, 48 h
[18] = Growth inhibition of human BT549 cells after 48 hrs by sulforhodamine B assay; format: functional; conditions: BT-549, 48 h
SK-MEL-2 = assay: Growth inhibition of human SK-MEL-2 cells after 48 hrs by sulforhodamine B assay; format: functional; conditions: SK-MEL-2, 48 h
MDA-MB-435 [19] = assay: Growth inhibition of human MDA-MB-435 cells after 48 hrs by sulforhodamine B assay; format: functional; conditions: MDA-MB-435, 48 h
[20] = Growth inhibition of human SF295 cells after 48 hrs by sulforhodamine B assay; format: functional; conditions: SF-295, 48 h
786-0 = assay: Growth inhibition of human 786-0 cells after 48 hrs by sulforhodamine B assay; format: functional; conditions: 786-0, 48 h
[21] = Antiproliferative activity against human SKOV3 cells overexpressing wild type beta3 tubulin after 48 hrs by sulforhodamine B assay; format: functional, cell-based; conditions: SK-OV-3, 48 h
SNB-19 = assay: Growth inhibition of human SNB19 cells after 48 hrs by sulforhodamine B assay; format: functional; conditions: SNB-19, 48 h
[22] = Growth inhibition of human RXF393 cells after 48 hrs by sulforhodamine B assay; format: functional; conditions: RXF 393, 48 h
CCRF-CEM = assay: Growth inhibition of human CCRF-CEM cells after 48 hrs by sulforhodamine B assay; format: functional
NCI-H226 = assay: Growth inhibition of human NCI-H226 cells after 48 hrs by sulforhodamine B assay; format: functional; conditions: NCI-H226, 48 h
[23] = Growth inhibition of human UO31 cells after 48 hrs by sulforhodamine B assay; format: functional; conditions: UO-31, 48 h
[24] = Growth inhibition of human MOLT4 cells after 48 hrs by sulforhodamine B assay; format: functional; conditions: MOLT-4, 48 h
[25] = Induction of microtubule depolymerization in rat A10 cells after 18 hrs by indirect immunofluorescence assay; format: cell-based
HL-60(TB) = assay: Growth inhibition of human HL-60(TB) cells after 48 hrs by sulforhodamine B assay; format: functional; conditions: HL-60, 48 h
HeLa [26] = assay: Resistance ratio of IC50 for human HeLa cells overexpressing wild type beta3 tubulin to IC50 for human HeLa cells; format: functional
[27] = Growth inhibition of human COLO205 cells after 48 hrs by sulforhodamine B assay; format: functional; conditions: COLO 205, 48 h
[28] = Antiangiogenic activity in VEGF-165 and bFGF-stimulated chicken embryo chorioallantoic membrane assessed as inhibition of blood vessel formation after 40 hrs by microscopy; format: functional, tissue-based, Gallus gallus
IGROV-1 = assay: Growth inhibition of human IGROV1 cells after 48 hrs by sulforhodamine B assay; format: functional; conditions: IGROV-1, 48 h
U-251 = assay: Growth inhibition of human U251 cells after 48 hrs by sulforhodamine B assay; format: functional; conditions: U-251, 48 h
KM12 = assay: Growth inhibition of human KM12 cells after 48 hrs by sulforhodamine B assay; format: functional; conditions: KM12, 48 h
[29] = Growth inhibition of human PC3 cells after 48 hrs by sulforhodamine B assay; format: functional; conditions: PC-3, 48 h
NCI-H460 = assay: Growth inhibition of human NCI-H460 cells after 48 hrs by sulforhodamine B assay; format: functional; conditions: NCI-H460, 48 h
[30] = Growth inhibition of human HOP92 cells after 48 hrs by sulforhodamine B assay; format: functional; conditions: HOP-92, 48 h
[31] = Ratio of EC50 for microtubule depolymerization in rat A10 cells to IC50 for human MDA-MB-435 cells
[32] = Growth inhibition of human EKVX cells after 48 hrs by sulforhodamine B assay; format: functional
Tubulin = Tubulin (Bos taurus, UniProt Q6B856+Q862L2+Q862F3); assay: Inhibition of bovine brain tubulin assembly

## Cc1nc(N(C)c2ccc3occc3c2)c2cc(C)oc2n1
SW-620
  GI50: 58.8 nM
NCI-H522
  GI50: 29.9 nM
[1]
  GI50: 330 nM
[2]
  GI50: 389 nM
SK-OV-3 [3]
  GI50: 98 nM
HeLa [4]
  IC50: 243 nM
MDA-MB-435 [5]
  IC50: 133 nM
SK-OV-3 [6]
  Ratio IC50: 1.2
DU-145
  GI50: 198 nM
[7]
  GI50: 77.1 nM
HOP-62
  GI50: 75.2 nM
NCI/ADR-RES
  GI50: 37.6 nM
[8]
  IC50: 509 nM
[9]
  GI50: 30 nM
MCF7
  GI50: 43.8 nM
[10]
  GI50: 185 nM
[11]
  GI50: 162 nM
[12]
  GI50: 51.7 nM
CAKI-1
  GI50: 57.9 nM
[13]
  GI50: 57.1 nM
[14]
  GI50: 60.9 nM
[15]
  GI50: 553 nM
SR
  GI50: 62.4 nM
SF-268
  GI50: 527 nM
NCI-H23
  GI50: 206 nM
A-431
  IC50: 73.2 nM
HT-29
  GI50: 51.9 nM
SNB-75
  GI50: 103 nM
K562
  GI50: 40.4 nM
ACHN
  GI50: 265 nM
SN12C
  GI50: 611 nM
MDA-MB-468
  GI50: 31.5 nM
M14
  GI50: 47.3 nM
[16]
  GI50: 51.9 nM
[17]
  GI50: 531 nM
TK-10
  GI50: 382 nM
MDA-MB-231
  GI50: 223 nM
SK-MEL-5
  GI50: 50.4 nM
[18]
  GI50: 432 nM
SK-MEL-2
  GI50: 82.4 nM
MDA-MB-435 [19]
  GI50: 21.1 nM
[20]
  GI50: 41.7 nM
786-0
  GI50: 1040 nM
[21]
  IC50: 425 nM
SNB-19
  GI50: 93.6 nM
[22]
  GI50: 57.2 nM
CCRF-CEM
  GI50: 121 nM
NCI-H226
  GI50: 217 nM
[23]
  GI50: 278 nM
[24]
  GI50: 211 nM
[25]
  EC50: 3790 nM
HL-60(TB)
  GI50: 41.2 nM
HeLa [26]
  Ratio IC50: 0.8
[27]
  GI50: 139 nM
[28]
  IC50: 15200 nM
IGROV-1
  GI50: 142 nM
U-251
  GI50: 84 nM
KM12
  GI50: 58.4 nM
[29]
  GI50: 183 nM
NCI-H460
  GI50: 138 nM
[30]
  GI50: 226 nM
[31]
  Ratio: 28
[32]
  GI50: 396 nM

## COc1ccc(N(C)c2nc(C)nc3oc(C)cc23)cc1
Tubulin
  IC50: 2400 nM
[25]
  EC50: 103 nM
